Measurements reported in patent US11198761B2, “Biodegradable polyionenes” (AGENCY FOR SCIENCE, TECHNOLOGY AND RESEARCH, priority 2017, dated 2021).

How the values were obtained:
[1] = system: S. aureus (ATCC No. 6538); experiment: MIC, broth microdilution; assay type: cell-based, Staphylococcus aureus; conditions: Gemini-surfactant series S; 18 hours, 37° C.
Description: (§1) Bacterial and fungal samples were inoculated according to ATCC's requirement. Briefly, bacteria and fungi were grown in Mueller Hinton Broth (MHB) at 37° C. and room temperature, respectively overnight to allow the microbes to enter the log growth phase with constant 100 rpm shaking. Minimum inhibitory concentration (MIC) of the polymers was determined using the broth microdilution method. 100 μL of 20% v/v water-containing broth with various polymer or Gemini-surfactant concentrations was first added into each well of a 96-well tissue culture plate. The inoculated overnight microbe solution was first diluted to an optical density (O.D.) reading of 0.07 using a microplate reader (TECAN, Switzerland). This will correspond to 3×10^8 CFU/mL based on the McFarland 1 standard solution (CFU=colony forming units). The microbe solution was further diluted 1000 times to achieve a final 3×10^5 CFU/mL. To each well, an equal volume of diluted microbes solution was added and incubated at 37° C. for 18 hours for bacteria samples and at room temperature for 42 hours for fungi samples. There were 6 replicates for each concentration tested, with negative control being microbes added into broth containing 20% v/v deionized water. MIC was taken as the lowest concentration at which there was no observable microbe growth when measured by the microplate reader.

[2] = system: E. coli (ATCC No. 25922); experiment: MIC, broth microdilution; assay type: cell-based, Escherichia coli; conditions: Gemini-surfactant series S; 18 hours, 37° C.
Description: as §1

[3] = system: P. aeruginosa (ATCC No. 9027); experiment: MIC, broth microdilution; assay type: cell-based, Pseudomonas aeruginosa; conditions: Gemini-surfactant series S; 18 hours, 37° C.
Description: as §1

[4] = system: C. albicans (ATCC No 10231); experiment: MIC, broth microdilution; assay type: cell-based, Candida albicans; conditions: Gemini-surfactant series S; 42 hours, room temperature
Description: as §1

[5] = system: rat red blood cells (rRBCs); experiment: Hemolysis assay; assay type: cell-based; conditions: Gemini-surfactant series S; 1 hour, 37° C.
Description: Freshly obtained rat red blood cells (rRBC) from the Animal Handling Unit of Biomedical Research Center (Singapore) was used to test the hemolytic activity of the polymers and Gemini-surfactants. The rRBC was diluted to 4% v/v with phosphate-buffered saline (PBS) and added to an equal volume of 0.2% v/v Triton-X solution. A microplate reader was used to measure the optical density (O.D.) reading to make sure the value is between 0.5 and 0.6. An equal volume of different polymer or Gemini-surfactant concentrations was added to the diluted blood and incubated for 1 hour at 37° C. The samples were centrifuged at 1000 g at 4° C. for 5 minutes and 100 μL of the supernatant was collected and transferred to a 96-well tissue culture plate. There were 4 replicates for each concentration. Haemoglobin release was measured using the microplate reader at 576 nm. rRBCs treated with PBS were used as the […] control, while those treated with 0.2% v/v Triton-X was used as the […] control.
Percentage of hemolysis was calculated as follows: Hemolysis (%)═[(O.D.576 nm of the treated sample−O.D.576 nm of negative control)/(O.D.576 nm of positive control−O.D.576 nm of negative control)]×100%
HC50 was taken as the polymer concentration at which the polymer causes 50% hemolysis.

Compound | MIC SA [1] [ppm] | MIC EC [2] [ppm] | MIC PA [3] [ppm] | MIC CA [4] [ppm] | Hemolysis, HC50 [5]
CCCCCCCC[N+](C)(C)Cc1ccc(C(=O)NCCNC(=O)c2ccc(C[N+](C)(C)CCCCCCCC)cc2)cc1.[Cl-].[Cl-] [S-1f] | 31 | 250 | >500 | 125 | >2000 ppm
CCCCCCCCCCCC[N+](C)(C)Cc1ccc(C(=O)NCCNC(=O)c2ccc(C[N+](C)(C)CCCCCCCCCCCC)cc2)cc1.[Cl-].[Cl-] [S-1g] | 1 | 2 | 16 | 2 | 125-250 ppm
CCCCCCCCCCCC[N+](C)(C)Cc1ccc(C(=O)NCCNC(=O)c2ccc(C[N+](C)(C)CCCCCCCCCCCC)cc2)cc1.[Cl-].[Cl-] [S-1h] | 16 | 8 | 31 | 2 | 125-250 ppm
CCCCCCCC[N+](C)(C)Cc1ccc(C(=O)NCCCCCCNC(=O)c2ccc(C[N+](C)(C)CCCCCCCC)cc2)cc1.[Cl-].[Cl-] [S-3f] | 4 | 16 | 500 | 8 | 500-1000 ppm
CCCCCCCCCCCC[N+](C)(C)Cc1ccc(C(=O)NCCCCCCNC(=O)c2ccc(C[N+](C)(C)CCCCCCCCCCCC)cc2)cc1.[Cl-].[Cl-] [S-3h] | 4 | 16 | 16 | 2 | 125-250 ppm
CCCCCCCC[N+](C)(C)Cc1ccc(C(=O)NCc2cccc(CNC(=O)c3ccc(C[N+](C)(C)CCCCCCCC)cc3)c2)cc1.[Cl-].[Cl-] [S-4f] | 2 | 8 | 250 | 125 | 250-500 ppm
CCCCCCCCCC[N+](C)(C)Cc1ccc(C(=O)NCc2cccc(CNC(=O)c3ccc(C[N+](C)(C)CCCCCCCCCC)cc3)c2)cc1.[Cl-].[Cl-] [S-4g] | 1 | 1 | 8 | 1 | 63-125 ppm
CCCCCCCCCCCC[N+](C)(C)Cc1ccc(C(=O)NCc2cccc(CNC(=O)c3ccc(C[N+](C)(C)CCCCCCCCCCCC)cc3)c2)cc1.[Cl-].[Cl-] [S-4h] | 8 | 8 | 31 | 2 | 63-125 ppm
C=CC[N+](C)(C)Cc1ccc(C(=O)NCCOCCOCCNC(=O)c2ccc(C[N+](C)(C)CC=C)cc2)cc1.[Cl-].[Cl-] [S-5a] | >500 | >500 | >500 | >500 | >2000 ppm
C=C(C)C(=O)OCC[N+](C)(C)Cc1ccc(C(=O)NCCOCCOCCNC(=O)c2ccc(C[N+](C)(C)CCOC(=O)C(=C)C)cc2)cc1.[Cl-].[Cl-] [S-5b] | >500 | >500 | >500 | >500 | >2000 ppm
C[N+](C)(Cc1ccc(C(=O)NCCOCCOCCNC(=O)c2ccc(C[N+](C)(C)C3CCCCC3)cc2)cc1)C1CCCCC1.[Cl-].[Cl-] [S-5c] | >500 | >500 | >500 | >500 | >2000 ppm
C[N+](C)(Cc1ccccc1)Cc1ccc(C(=O)NCCOCCOCCNC(=O)c2ccc(C[N+](C)(C)Cc3ccccc3)cc2)cc1.[Cl-].[Cl-] [S-5d] | >500 | >500 | >500 | >500 | >2000 ppm
CCCC[N+](C)(C)Cc1ccc(C(=O)NCCOCCOCCNC(=O)c2ccc(C[N+](C)(C)CCCC)cc2)cc1.[Cl-].[Cl-] [S-5e] | >500 | >500 | >500 | >500 | >2000 ppm
CCCCCCCC[N+](C)(C)Cc1ccc(C(=O)NCCOCCOCCNC(=O)c2ccc(C[N+](C)(C)CCCCCCCC)cc2)cc1.[Cl-].[Cl-] [S-5f] | 31 | 250 | >500 | 125 | >2000 ppm
CCCCCCCCCC[N+](C)(C)Cc1ccc(C(=O)NCCOCCOCCNC(=O)c2ccc(C[N+](C)(C)CCCCCCCCCC)cc2)cc1.[Cl-].[Cl-] [S-5g] | 2 | 4 | 63 | 2 | 125-250 ppm
CCCCCCCCCCCC[N+](C)(C)Cc1ccc(C(=O)NCCOCCOCCNC(=O)c2ccc(C[N+](C)(C)CCCCCCCCCCCC)cc2)cc1.[Cl-].[Cl-] [S-5h] | 2 | 4 | 16 | 1 | 16-31 ppm
CCCCCCCC[N+](C)(C)Cc1ccc(C(=O)NCCCOCCOCCOCCCNC(=O)c2ccc(C[N+](C)(C)CCCCCCCC)cc2)cc1.[Cl-].[Cl-] [S-6f] | 16 | 125 | >500 | 16 | >2000 ppm
CCCCCCCCCC[N+](C)(C)Cc1ccc(C(=O)NCCCOCCOCCOCCCNC(=O)c2ccc(C[N+](C)(C)CCCCCCCCCC)cc2)cc1.[Cl-].[Cl-] [S-6g] | 2 | 4 | 63 | 4 | 250-500 ppm
CCCCCCCCCCCC[N+](C)(C)Cc1ccc(C(=O)NCCCOCCOCCOCCCNC(=O)c2ccc(C[N+](C)(C)CCCCCCCCCCCC)cc2)cc1.[Cl-].[Cl-] [S-6h] | 1 | 2 | 8 | 4 | 31-63 ppm
CCCCCCCCCC[N+](C)(C)Cc1ccc(C(=O)OCCCOC(=O)c2ccc(C[N+](C)(C)CCCCCCCCCC)cc2)cc1.[Cl-].[Cl-] [S-7g] | 1 | 1 | 8 | 1 | 63-125 ppm
CCCCCCCCCC[N+](C)(C)Cc1ccc(C(=O)OCCCCCCOC(=O)c2ccc(C[N+](C)(C)CCCCCCCCCC)cc2)cc1.[Cl-].[Cl-] [S-9g] | 1 | 2 | 8 | 1 | 125-250 ppm
